Experimental data taken from ChEMBL document CHEMBL1138138, “Piperazinyl oxime ethers as NK-1 receptor antagonists” (Bioorg Med Chem Lett, 2006).

What was measured:
Substance-P receptor [1] = target: T1, Substance-P receptor (Homo sapiens, UniProt P25103); assay: Displacement of [3H] labelled Substance P from cloned human NK1 receptor expressed in CHO cells; assay type: cell-based
Substance-P receptor [2] = target: T1, Substance-P receptor; assay: Effect on IP3 turnover by phospholipaseC positively linked to human NK1 receptor expressed in CHO cells; assay type: functional, cell-based; settings: read-out: pA2 (converted)
Gerbil, jird = assay: Inhibition of GR-73632 induced foot tapping in po dosed gerbils; assay type: functional; settings: Meriones

T1 sequence (P25103 whole entry): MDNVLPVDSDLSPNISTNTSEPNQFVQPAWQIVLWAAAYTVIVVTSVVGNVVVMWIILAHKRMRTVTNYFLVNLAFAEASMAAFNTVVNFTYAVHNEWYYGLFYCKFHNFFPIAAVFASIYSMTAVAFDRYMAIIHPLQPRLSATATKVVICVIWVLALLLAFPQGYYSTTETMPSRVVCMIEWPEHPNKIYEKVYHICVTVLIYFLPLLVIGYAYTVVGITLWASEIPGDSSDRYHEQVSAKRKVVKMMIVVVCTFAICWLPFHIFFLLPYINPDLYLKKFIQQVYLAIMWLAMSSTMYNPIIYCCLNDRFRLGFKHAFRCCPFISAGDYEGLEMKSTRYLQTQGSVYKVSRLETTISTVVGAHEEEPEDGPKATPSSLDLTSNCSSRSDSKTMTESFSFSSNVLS

O=C(c1cc(C(F)(F)F)cc(C(F)(F)F)c1)N1CCN(C/C=N\OCCN2CCOCC2)C[C@H]1Cc1c[nH]c2ccccc12
Ki (Substance-P receptor [1]): 1.26 nM
Kb (Substance-P receptor [2]): 0.631 nM
ED50 (Gerbil, jird): 2 mg/kg

CNCCO/N=C(/C)CN1CCN(C(=O)c2cc(C(F)(F)F)cc(C(F)(F)F)c2)[C@H](Cc2c[nH]c3ccccc23)C1
Ki (Substance-P receptor [1]): 2 nM
Kb (Substance-P receptor [2]): 0.316 nM
ED50 (Gerbil, jird): > 10 mg/kg

C/C(CCN1CCN(C(=O)c2cc(C(F)(F)F)cc(C(F)(F)F)c2)[C@H](Cc2c[nH]c3ccccc23)C1)=N/OCCCN1CCOCC1
Ki (Substance-P receptor [1]): 0.2 nM
Kb (Substance-P receptor [2]): 1 nM
ED50 (Gerbil, jird): 5.5 mg/kg

O=C(c1cc(C(F)(F)F)cc(C(F)(F)F)c1)N1CCN(C/C(=N\OCCCN2CCOCC2)c2ccccc2)C[C@H]1Cc1c[nH]c2ccccc12
Ki (Substance-P receptor [1]): 6.31 nM
Kb (Substance-P receptor [2]): 1.26 nM
ED50 (Gerbil, jird): > 10 mg/kg

O=C(c1cc(C(F)(F)F)cc(C(F)(F)F)c1)N1CCN(C/C(=N\OCCN2CCOCC2)c2ccccc2)C[C@H]1Cc1c[nH]c2ccccc12
Ki (Substance-P receptor [1]): 20 nM
Kb (Substance-P receptor [2]): 3.16 nM

O=C(c1cc(C(F)(F)F)cc(C(F)(F)F)c1)N1CCN(CC/C(=N\OCCN2CCOCC2)c2ccccc2)C[C@H]1Cc1c[nH]c2ccccc12
Ki (Substance-P receptor [1]): 10 nM
Kb (Substance-P receptor [2]): 1.26 nM
ED50 (Gerbil, jird): > 10 mg/kg

O=C(c1cc(C(F)(F)F)cc(C(F)(F)F)c1)N1CCN(Cc2cc(CN3CCOCC3)on2)C[C@H]1Cc1c[nH]c2ccccc12
Ki (Substance-P receptor [1]): 12.6 nM
Kb (Substance-P receptor [2]): 0.794 nM
ED50 (Gerbil, jird): 4.6 mg/kg

C/C(CN1CCN(C(=O)c2cc(C(F)(F)F)cc(C(F)(F)F)c2)[C@H](Cc2c[nH]c3ccccc23)C1)=N/OCc1ccccn1
Ki (Substance-P receptor [1]): 10 nM
Kb (Substance-P receptor [2]): 1.26 nM
ED50 (Gerbil, jird): 4.1 mg/kg

C/C(CN1CCN(C(=O)c2cc(C(F)(F)F)cc(C(F)(F)F)c2)[C@H](Cc2c[nH]c3ccccc23)C1)=N/OCCN(C)C
Ki (Substance-P receptor [1]): 0.794 nM
Kb (Substance-P receptor [2]): 7.94 nM
ED50 (Gerbil, jird): > 10 mg/kg

O=C(c1cc(C(F)(F)F)cc(C(F)(F)F)c1)N1CCN(CC2=NOC(CN3CCOCC3)C2)C[C@H]1Cc1c[nH]c2ccccc12 (stereo not given in full)
Ki (Substance-P receptor [1]): 2.51 nM
Kb (Substance-P receptor [2]): 0.631 nM
ED50 (Gerbil, jird): 6.4 mg/kg

O=C(c1cc(C(F)(F)F)cc(C(F)(F)F)c1)N1CCN(C/C=N\OCCCN2CCOCC2)C[C@H]1Cc1c[nH]c2ccccc12
Ki (Substance-P receptor [1]): 1.26 nM
Kb (Substance-P receptor [2]): 0.631 nM
ED50 (Gerbil, jird): 2.3 mg/kg

C/C(CN1CCN(C(=O)c2cc(C(F)(F)F)cc(C(F)(F)F)c2)[C@H](Cc2c[nH]c3ccccc23)C1)=N/OCC(C)(C)N1CCOCC1
Ki (Substance-P receptor [1]): 6.31 nM
Kb (Substance-P receptor [2]): 5.01 nM

C/C(CN1CCN(C(=O)c2cc(C(F)(F)F)cc(C(F)(F)F)c2)[C@H](Cc2c[nH]c3ccccc23)C1)=N/OCCCN1CCOCC1
Ki (Substance-P receptor [1]): 12.6 nM
Kb (Substance-P receptor [2]): 0.158 nM
ED50 (Gerbil, jird): 7.4 mg/kg

C/C(CCCN1CCN(C(=O)c2cc(C(F)(F)F)cc(C(F)(F)F)c2)[C@H](Cc2c[nH]c3ccccc23)C1)=N/OCCN1CCOCC1
Ki (Substance-P receptor [1]): 1.26 nM
Kb (Substance-P receptor [2]): 1.58 nM
ED50 (Gerbil, jird): 2 mg/kg

C/C(CN1CCN(C(=O)c2cc(C(F)(F)F)cc(C(F)(F)F)c2)[C@H](Cc2c[nH]c3ccccc23)C1)=N/OCCN1CCN(C)CC1
Ki (Substance-P receptor [1]): 1.58 nM
Kb (Substance-P receptor [2]): 1.58 nM
ED50 (Gerbil, jird): > 10 mg/kg

C/C(CN1CCN(C(=O)c2cc(C(F)(F)F)cc(C(F)(F)F)c2)[C@H](Cc2c[nH]c3ccccc23)C1)=N/OCC(C)N1CCOCC1 (stereo not given in full)
Ki (Substance-P receptor [1]): 3.16 nM
Kb (Substance-P receptor [2]): 2 nM
ED50 (Gerbil, jird): 2.6 mg/kg

C/C(CN1CCN(C(=O)c2cc(C(F)(F)F)cc(C(F)(F)F)c2)[C@H](Cc2c[nH]c3ccccc23)C1)=N/OCCN
Ki (Substance-P receptor [1]): 0.794 nM
Kb (Substance-P receptor [2]): 0.158 nM
ED50 (Gerbil, jird): > 10 mg/kg

C/C(CN1CCN(C(=O)c2cc(C(F)(F)F)cc(C(F)(F)F)c2)[C@H](Cc2c[nH]c3ccccc23)C1)=N/OCCN1CCS(=O)(=O)CC1
Ki (Substance-P receptor [1]): 2.51 nM
Kb (Substance-P receptor [2]): 0.1 nM
ED50 (Gerbil, jird): > 10 mg/kg

COc1ccccc1CNCCNC(=O)N1CCN(C(=O)c2cc(C(F)(F)F)cc(C(F)(F)F)c2)[C@H](Cc2c[nH]c3ccccc23)C1
Kb (Substance-P receptor [2]): 1.26 nM
ED50 (Gerbil, jird): > 10 mg/kg

C/C(CN1CCN(C(=O)c2cc(C(F)(F)F)cc(C(F)(F)F)c2)[C@H](Cc2c[nH]c3ccccc23)C1)=N/OCCN1CCSCC1
Ki (Substance-P receptor [1]): 6.31 nM
Kb (Substance-P receptor [2]): 1.26 nM
ED50 (Gerbil, jird): 10 mg/kg

C/C(CN1CCN(C(=O)c2cc(C(F)(F)F)cc(C(F)(F)F)c2)[C@H](Cc2c[nH]c3ccccc23)C1)=N/OCCN1CCOCC1
Ki (Substance-P receptor [1]): 10 nM
Kb (Substance-P receptor [2]): 0.158 nM
ED50 (Gerbil, jird): 1.3 mg/kg

C/C(CCN1CCN(C(=O)c2cc(C(F)(F)F)cc(C(F)(F)F)c2)[C@H](Cc2c[nH]c3ccccc23)C1)=N/OCCN1CCOCC1
Ki (Substance-P receptor [1]): 0.398 nM
Kb (Substance-P receptor [2]): 1.26 nM
ED50 (Gerbil, jird): 2 mg/kg

CO/N=C(/C)CN1CCN(C(=O)c2cc(C(F)(F)F)cc(C(F)(F)F)c2)[C@H](Cc2c[nH]c3ccccc23)C1
Ki (Substance-P receptor [1]): 3.98 nM
Kb (Substance-P receptor [2]): 7.94 nM
